Measured values as given in US6335350B1, “Acetamide and substituted acetamide-containing thiourea inhibitors of herpes viruses” (American Home Products Corporation, priority 1998, dated 2002).
≈ marks a conversion by molar mass, not a printed value.

system: HCMV wild-type; assay: HCMV yield assay; format: cell-based, human cytomegalovirus; settings: Human betaherpesvirus 5, Fibroblast, human foreskin fibroblasts; read-out: IC50 Ug/ml HCMV
Description: Yield assay. Monolayer cultures of human foreskin fibroblasts are infected with HCMV wild-type, typically at a multiplicity of infection equal to 0.2, in the presence of inhibitor compound (varying concentrations). At three days post-infection, total virus produced in these cultures (i.e. virus yield) is assessed by harvesting and titering the virus in 12-well plates of cultured human foreskin fibroblasts (done in the absence of inhibitor). Plaques are quantified at 2 weeks post-infection. An inhibitor of HCMV is identified by the reduction in titer of virus yield in the presence, compared to the titer in the absence of compound. In this assay, the relative anti-HCMV activity of an inhibitor is typically determined by calculating the IC50 or IC90 value, that is, the amount of compound required to reduce the virus yield by 50% or 90%, respectively. Table I describes IC50 data for compounds tested against HCMV.

Row | Compound | IC50
1 | CC(=O)Nc1ccc(NC(=S)Nc2ccc(OC(=O)c3ccccc3)cc2O)cc1 [Example 113, Benzoic acid 4-[3-(4-acetylamino-phenyl)-thioureido]-3-hydroxy-phenylester] | 45 µg/mL (≈ 107 µM)
2 | CC(=O)Nc1ccc(NC(=S)Nc2cccc([N+](=O)[O-])c2)cc1 [Example 124, N-{4-[3-(3-Nitro-phenyl)-thioureido]-phenyl}-acetamide] | 50 µg/mL (≈ 151 µM)
3 | CC(=O)Nc1ccc(NC(=S)Nc2cc(Cl)ccc2O)cc1 [Example 126, N-{4-[3-(5-Chloro-2-hydroxy-phenyl)-thioureido]-phenyl}-acetamide] | 20 µg/mL (≈ 59.6 µM)
4 | CC(=O)Nc1ccc(NC(=S)Nc2cc(C)c(O)c(Cl)c2)cc1 [Example 128, N-{4-[3-(3-Chloro-4-hydroxy-5-methyl-phenyl)-thioureido]-phenyl}-acetamide] | 15 µg/mL (≈ 42.9 µM)
5 | CC(=O)Nc1ccc(NC(=S)Nc2cc(Cl)c(O)c(Cl)c2C)cc1 [Example 129, N-{4-[3-(3,5-Dichloro-4-hydroxy-2-methyl-phenyl)-thioureido]-phenyl}-acetamide] | > 50 µg/mL
6 | CC(=O)Nc1ccc(NC(=S)Nc2ccc(O)cc2O)cc1 [Example 130, N-{4-[3-(2,4-Dihydroxy-phenyl)-thioureido]-phenyl}-acetamide] | 30 µg/mL (≈ 94.5 µM)
7 | COc1cc(OC)c(C(F)(F)F)cc1NC(=S)Nc1ccc(NC(C)=O)cc1 [Example 131, N-{4-[3-(2,4-Dimethoxy-5-trifluoromethyl-phenyl)-thioureido]-phenyl}-acetamide] | < 50 µg/mL
8 | COc1ccc(NC(=S)Nc2ccc(NC(C)=O)cc2)c(O)c1 [Example 132, N-{4-[3-(2-Hydroxy-4-methoxy-phenyl)-thioureido]-phenyl}-acetamide] | > 50 µg/mL
9 | COc1cc(OC)c(NC(=S)Nc2ccc(NC(C)=O)cc2)cc1Br [Example 150, N-{4-[3-(5-Bromo-2,4-dimethoxy-phenyl)-thioureido]-phenyl}-acetamide] | 40 µg/mL (≈ 94.3 µM)
10 | COc1cc(NC(=S)Nc2ccc(NC(C)=O)cc2)cc(OC)c1OC [Example 151, N-{4-[3-(3,4,5-Trimethoxy-phenyl)-thioureido]-phenyl}-acetamide] | 40 µg/mL (≈ 107 µM)
11 | CC(NC(=S)Nc1ccc(NC(=O)Cc2ccccc2)cc1)c1ccc(F)cc1 (stereo not drawn) [Example 751, N-(4-{3-[1-(4-Fluoro-phenyl)-ethyl]-thioureido}-phenyl)-2-phenyl-acetamide] | > 0.5 µg/mL

same assay, conditions: human foreskin fibroblasts

Row | Compound | IC50 Ug/ml HCMV
12 | N-(4-{3-[1-(4-Fluoro-phenyl)-ethyl]-thioureido}-phenyl)-acetamide [Example 744] | >0.5 Ug/ml

system: HSV-1; assay: HSV Antiviral (ELISA) Assay; format: cell-based, herpes simplex virus type 1; settings: Human alphaherpesvirus 1, Vero, Vero cells, HSV-1; read-out: IC50 Ug/ml HSV
Description: Vero cells (ATCC #CCL-81) are plated on 96-well tissue culture plates at 3.5×10^4 cells per 100 μl tissue culture DMEM (Dulbecco's modified Eagle media) supplemented with 2% fetal bovine serum (FBS) in each well. After overnight incubation @ 37° C. (in 5% CO2) and 30 minutes prior to infection with HSV-1 (multiplicity of infection equal to 0.006), cells are either untreated, or treated with test compound (multiple concentrations) or reference standard drug control. After approximately 24 hours post-infection incubation @ 37° C. (in 5% CO2), cells are fixed for ELISA assay. The primary antibody is murine anti-HSV glycoprotein D monoclonal primary antibody and the secondary antibody is goat anti-mouse IgG linked to β-galactosidase. Thus the extent of viral replication is determined by assessing β-galactosidase activity by quantifying the generation of the 4-methyl umbelliferone fluorescent cleavage product after addition of the methyl umbelliferyl-β-D-galactoside (Sigma #M1633) substrate on a microfluorimeter (365 nm for excitation and 450 nm for emission). Antiviral activity (IC50) of the test compound is determined by comparing the flourescence obtained in absence of compound to that obtained in the presence of compound.

Row | Compound | IC50
13 | CC(=O)Nc1ccc(NC(=S)Nc2ccc(OC(=O)c3ccccc3)cc2O)cc1 [Example 113, Benzoic acid 4-[3-(4-acetylamino-phenyl)-thioureido]-3-hydroxy-phenylester] | 50 µg/mL (≈ 119 µM)
14 | CC(=O)Nc1ccc(NC(=S)Nc2cccc([N+](=O)[O-])c2)cc1 [Example 124, N-{4-[3-(3-Nitro-phenyl)-thioureido]-phenyl}-acetamide] | 50 µg/mL (≈ 151 µM)
15 | CC(=O)Nc1ccc(NC(=S)Nc2cc(Cl)ccc2O)cc1 [Example 126, N-{4-[3-(5-Chloro-2-hydroxy-phenyl)-thioureido]-phenyl}-acetamide] | 30 µg/mL (≈ 89.3 µM)
16 | CC(=O)Nc1ccc(NC(=S)Nc2cc(C)c(O)c(Cl)c2)cc1 [Example 128, N-{4-[3-(3-Chloro-4-hydroxy-5-methyl-phenyl)-thioureido]-phenyl}-acetamide] | 15 µg/mL (≈ 42.9 µM)
17 | CC(=O)Nc1ccc(NC(=S)Nc2cc(Cl)c(O)c(Cl)c2C)cc1 [Example 129, N-{4-[3-(3,5-Dichloro-4-hydroxy-2-methyl-phenyl)-thioureido]-phenyl}-acetamide] | > 50 µg/mL
18 | CC(=O)Nc1ccc(NC(=S)Nc2ccc(O)cc2O)cc1 [Example 130, N-{4-[3-(2,4-Dihydroxy-phenyl)-thioureido]-phenyl}-acetamide] | > 50 µg/mL
19 | COc1cc(OC)c(C(F)(F)F)cc1NC(=S)Nc1ccc(NC(C)=O)cc1 [Example 131, N-{4-[3-(2,4-Dimethoxy-5-trifluoromethyl-phenyl)-thioureido]-phenyl}-acetamide] | 15 µg/mL (≈ 36.3 µM)
20 | COc1ccc(NC(=S)Nc2ccc(NC(C)=O)cc2)c(O)c1 [Example 132, N-{4-[3-(2-Hydroxy-4-methoxy-phenyl)-thioureido]-phenyl}-acetamide] | > 50 µg/mL
21 | COc1cc(OC)c(NC(=S)Nc2ccc(NC(C)=O)cc2)cc1Br [Example 150, N-{4-[3-(5-Bromo-2,4-dimethoxy-phenyl)-thioureido]-phenyl}-acetamide] | 9 µg/mL (≈ 21.2 µM)
22 | COc1cc(NC(=S)Nc2ccc(NC(C)=O)cc2)cc(OC)c1OC [Example 151, N-{4-[3-(3,4,5-Trimethoxy-phenyl)-thioureido]-phenyl}-acetamide] | > 50 µg/mL
23 | CC(NC(=S)Nc1ccc(NC(=O)Cc2ccccc2)cc1)c1ccc(F)cc1 (stereo not drawn) [Example 751, N-(4-{3-[1-(4-Fluoro-phenyl)-ethyl]-thioureido}-phenyl)-2-phenyl-acetamide] | > 10 µg/mL

same assay, conditions: Vero cells, HSV-1

Row | Compound | IC50 Ug/ml HSV
24 | N-(4-{3-[1-(4-Fluoro-phenyl)-ethyl]-thioureido}-phenyl)-acetamide [Example 744] | >10 Ug/ml

system: VZV strain Ellen; assay: VZV Antiviral (ELISA) Assay; format: cell-based, varicella-zoster virus; settings: Human alphaherpesvirus 3, Fibroblast, human foreskin fibroblast cells; read-out: IC50 Ug/ml VZV
Description: For the generation of stock VZV to be used in the assay, VZV strain Ellen (ATCC #VR-1367) is used to infect human foreskin fibroblast (HFF) cells at low multiplicity (less than 0.1) and incubated overnight at 37° C. in 5% CO2. After the overnight incubation, the mixture of uninfected and VZV-infected HFF infected cells are then harvested and added to each well of 96-well plates (3.5×10^4 cells in 100 μl DMEM supplemented with 2% FBS) which contain test compound or the reference standard drug control (in 100 μl DMEM supplemented with 2% FBS per well). These cells are incubated for three days at 37° C. in 5% CO2, then fixed for ELISA assay. The primary antibody is murine anti-VZV glycoprotein II monoclonal antibody (Applied Biosystems, Inc. #13-145-100) and the secondary antibody is goat anti-mouse IgG linked to β-galactosidase. Thus the extent of viral replication is determined by assessing β-galactosidase activity by quantifying the generation of the 4-methyl umbelliferone fluorescent cleavage product after addition of the methyl umbelliferyl-β-D-galactoside (Sigma #M1633) substrate on a microfluorimeter (365 nm for excitation and 450 nm for emission). Antiviral activity (IC50) of the test compound is determined by comparing the flourescence obtained in absence of compound to that obtained in the presence of compound.

Row | Compound | IC50
25 | CC(=O)Nc1ccc(NC(=S)Nc2ccc(OC(=O)c3ccccc3)cc2O)cc1 [Example 113, Benzoic acid 4-[3-(4-acetylamino-phenyl)-thioureido]-3-hydroxy-phenylester] | > 10 µg/mL
26 | CC(=O)Nc1ccc(NC(=S)Nc2cccc([N+](=O)[O-])c2)cc1 [Example 124, N-{4-[3-(3-Nitro-phenyl)-thioureido]-phenyl}-acetamide] | > 10 µg/mL
27 | CC(=O)Nc1ccc(NC(=S)Nc2cc(Cl)ccc2O)cc1 [Example 126, N-{4-[3-(5-Chloro-2-hydroxy-phenyl)-thioureido]-phenyl}-acetamide] | > 10 µg/mL
28 | CC(=O)Nc1ccc(NC(=S)Nc2cc(C)c(O)c(Cl)c2)cc1 [Example 128, N-{4-[3-(3-Chloro-4-hydroxy-5-methyl-phenyl)-thioureido]-phenyl}-acetamide] | > 10 µg/mL
29 | CC(=O)Nc1ccc(NC(=S)Nc2cc(Cl)c(O)c(Cl)c2C)cc1 [Example 129, N-{4-[3-(3,5-Dichloro-4-hydroxy-2-methyl-phenyl)-thioureido]-phenyl}-acetamide] | > 10 µg/mL
30 | CC(=O)Nc1ccc(NC(=S)Nc2ccc(O)cc2O)cc1 [Example 130, N-{4-[3-(2,4-Dihydroxy-phenyl)-thioureido]-phenyl}-acetamide] | > 10 µg/mL
31 | COc1cc(OC)c(C(F)(F)F)cc1NC(=S)Nc1ccc(NC(C)=O)cc1 [Example 131, N-{4-[3-(2,4-Dimethoxy-5-trifluoromethyl-phenyl)-thioureido]-phenyl}-acetamide] | > 10 µg/mL
32 | COc1ccc(NC(=S)Nc2ccc(NC(C)=O)cc2)c(O)c1 [Example 132, N-{4-[3-(2-Hydroxy-4-methoxy-phenyl)-thioureido]-phenyl}-acetamide] | > 10 µg/mL
33 | COc1cc(OC)c(NC(=S)Nc2ccc(NC(C)=O)cc2)cc1Br [Example 150, N-{4-[3-(5-Bromo-2,4-dimethoxy-phenyl)-thioureido]-phenyl}-acetamide] | > 10 µg/mL
34 | COc1cc(NC(=S)Nc2ccc(NC(C)=O)cc2)cc(OC)c1OC [Example 151, N-{4-[3-(3,4,5-Trimethoxy-phenyl)-thioureido]-phenyl}-acetamide] | > 10 µg/mL
35 | CCC(=O)Nc1ccc(NC(=S)NC(C)c2ccc(F)cc2)cc1 (stereo not drawn) [Example 813, N-(4-{3-[1-(4-Fluoro-phenyl)-ethyl]-thioureido}-phenyl)-propionamide] | 3.5 µg/mL (≈ 10.1 µM)

same assay, conditions: Human alphaherpesvirus 3, Fibroblast, read-out: % inhibition 10 ug/ml VZV, 10 ug/ml; human foreskin fibroblast cells

Row | Compound | inhibition at 10 µg/mL
36 | CC(=O)Nc1ccc(NC(=S)Nc2ccc(OC(=O)c3ccccc3)cc2O)cc1 [Example 113, Benzoic acid 4-[3-(4-acetylamino-phenyl)-thioureido]-3-hydroxy-phenylester] | 39%
37 | CC(=O)Nc1ccc(NC(=S)Nc2cccc([N+](=O)[O-])c2)cc1 [Example 124, N-{4-[3-(3-Nitro-phenyl)-thioureido]-phenyl}-acetamide] | 0%
38 | CC(=O)Nc1ccc(NC(=S)Nc2cc(Cl)ccc2O)cc1 [Example 126, N-{4-[3-(5-Chloro-2-hydroxy-phenyl)-thioureido]-phenyl}-acetamide] | 23%
39 | CC(=O)Nc1ccc(NC(=S)Nc2cc(C)c(O)c(Cl)c2)cc1 [Example 128, N-{4-[3-(3-Chloro-4-hydroxy-5-methyl-phenyl)-thioureido]-phenyl}-acetamide] | 35%
40 | CC(=O)Nc1ccc(NC(=S)Nc2cc(Cl)c(O)c(Cl)c2C)cc1 [Example 129, N-{4-[3-(3,5-Dichloro-4-hydroxy-2-methyl-phenyl)-thioureido]-phenyl}-acetamide] | 29%
41 | CC(=O)Nc1ccc(NC(=S)Nc2ccc(O)cc2O)cc1 [Example 130, N-{4-[3-(2,4-Dihydroxy-phenyl)-thioureido]-phenyl}-acetamide] | 30%
42 | COc1cc(OC)c(C(F)(F)F)cc1NC(=S)Nc1ccc(NC(C)=O)cc1 [Example 131, N-{4-[3-(2,4-Dimethoxy-5-trifluoromethyl-phenyl)-thioureido]-phenyl}-acetamide] | 53%
43 | COc1ccc(NC(=S)Nc2ccc(NC(C)=O)cc2)c(O)c1 [Example 132, N-{4-[3-(2-Hydroxy-4-methoxy-phenyl)-thioureido]-phenyl}-acetamide] | 11%
44 | COc1cc(OC)c(NC(=S)Nc2ccc(NC(C)=O)cc2)cc1Br [Example 150, N-{4-[3-(5-Bromo-2,4-dimethoxy-phenyl)-thioureido]-phenyl}-acetamide] | 3%
45 | COc1cc(NC(=S)Nc2ccc(NC(C)=O)cc2)cc(OC)c1OC [Example 151, N-{4-[3-(3,4,5-Trimethoxy-phenyl)-thioureido]-phenyl}-acetamide] | 0%
